Converted amounts (≈) assume the structure as drawn.
Legend:
[1] = tested on: S. aureus; experiment: MIC, resazurin broth microdilution; format: cell-based, Staphylococcus aureus; conditions: media MH
[2] = molecular target: T1, RFK+FMNAT CaFADS activities (Corynebacterium ammoniagenes, UniProt Q59263); experiment: Inhibition of the RFK+FMNAT activity of CaFADS; format: biochemical; conditions: 25 °C; for RFK+FMNAT % Res. act. 250 μM: residual activity at 250 μM of compound
T1 construct: made in house; host or cells: Escherichia coli BL21(DE3)
T1 sequence (Q59263 whole entry): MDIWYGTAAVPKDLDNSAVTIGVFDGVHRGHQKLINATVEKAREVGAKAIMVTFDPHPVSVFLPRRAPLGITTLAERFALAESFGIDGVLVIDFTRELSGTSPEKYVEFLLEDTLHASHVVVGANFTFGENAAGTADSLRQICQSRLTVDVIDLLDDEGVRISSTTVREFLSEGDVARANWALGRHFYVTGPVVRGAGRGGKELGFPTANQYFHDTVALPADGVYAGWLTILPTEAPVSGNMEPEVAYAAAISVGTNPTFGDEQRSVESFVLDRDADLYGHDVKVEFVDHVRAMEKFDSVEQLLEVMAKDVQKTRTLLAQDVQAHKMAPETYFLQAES
Description: (§1) To determine the compound’s ability to inhibit the RFK and/or the FMNAT activities of CaFADS, both enzymatic activities were quantitatively measured in the absence and presence of the compounds following previously described protocols. Reaction mixtures contained 50 μM ATP, 5 μM RF in 20 mM PIPES, pH 7.0, 0.8 mM MgCl2, when assaying the RFK activity, and 50 μM ATP, 10 μM FMN in 20 mM PIPES, pH 7.0, 10 mM MgCl2 when measuring the FMNAT reaction. Each compound was tested at 250 μM (0.5% residual final concentration of DMSO) for each of the two enzymatic reactions. The samples were pre-incubated at 25 °C, the reaction was then initiated by the addition of ∼ 40 nM CaFADS (final concentration) and allowed for 1 min. Finally, the reaction was stopped by boiling the samples for 5 min and the denatured protein was eliminated through centrifugation. The transformation of RF into FMN and FAD (RFK activity) and of FMN into FAD (FMNAT activity) was evaluated through flavins separation by HPLC (Waters), as previously described. All the experiments were performed in triplicate. To evaluate the potency of compounds as inhibitors, we took advantage of the decrease in quantum yield of fluorescence when FMN is transformed into FAD, which allows to follow such transformation in a continuous system. Measurements were carried out using a microplate reader Synergy HT multimode plate reader (Biotek) with BRAND 96-well plates pure Grade. Reaction mixtures contained 5 μM RF or FMN, and 50 μM ATP in 20 mM PIPES, pH 7.0, 10 mM MgCl2, and the inhibitor compound in a 5-250 μM concentration range (2% residual final concentration of DMSO). Reactions were initiated through addition of 0.4 μM CaFADS, being the final reaction volume 100 μL. Flavin fluorescence (excitation at 440 nm and emission at 530 nm) was registered at 25 °C, every 50 s during 15 min. The fluorescence change per time unit (ΔF/Δt) was calculated as the slope of the resulting fluorescence decays recorded between 0 and 6 min (linear decay of the fluorescence). Controls which contained the reaction mixture without the enzyme and without any potential CaFADS inhibitory compound were included in the assay and referred as the 0% and 100% of enzymatic activity, respectively. IC50 was calculated as the concentration of compound required for a 50% inhibition of the enzymatic activity.

[3] = tested on: S. thyphimurium; experiment: MIC, resazurin broth microdilution; format: cell-based, Salmonella thyphimurium; conditions: media MH
[4] = molecular target: T2, FMNAT activity of CaFADS (Corynebacterium ammoniagenes, UniProt Q59263); experiment: Inhibition of the FMNAT activity of CaFADS; format: biochemical; conditions: 25 °C; for FMNAT % Res. act. 250 μM: residual activity at 250 μM of compound
T2 construct: made in house; host or cells: Escherichia coli BL21(DE3)
T2 sequence (Q59263 whole entry): as above
Description: as §1

[5] = tested on: M. tuberculosis; experiment: MIC, resazurin broth microdilution; format: cell-based, Mycobacterium tuberculosis; conditions: for MIC: M. tuberculosis, media 7H9G-ADC; for MIC (μM) M. tuberculosis: Table 3
[6] = tested on: S. pneumoniae; experiment: MIC, resazurin broth microdilution; format: cell-based, Streptococcus pneumoniae
[7] = tested on: P. aeruginosa; experiment: MIC, resazurin broth microdilution; format: cell-based, Pseudomonas aeruginosa; conditions: media MH
[8] = tested on: L. monocytogenes; experiment: MIC, resazurin broth microdilution; format: cell-based, Listeria monocytogenes; conditions: media BHI
[9] = tested on: HeLa; experiment: MTT cytotoxicity assay; format: cell-based; conditions: 24 h; for IC50: 4-512 μM range, read-out: IC50 (concentration causing 50% inhibition of cellular viability); for concentration range with moderate cytotoxicity: complete viability at lower concentrations
Description: (§2) The (4,5-dimethylthiazol-2-yl)-2,5-diphenyl tetrazolium bromide (MTT) assay was used to determine the effect of the compounds in cell growth and viability of HeLa (ATCC CCL-2) and A549 (ATCC CCL-185) eukaryotic cell lines. Both cell lines were routinely cultured in high-glucose DMEM (Lonza) supplemented with 10% fetal bovine serum, 4 mM glutamine GlutaMAX™ (Gibco) and 1x non-essential amino acids (Gibco), under 5% CO2 at 37 °C in a humidified atmosphere. For the MTT assay, cells were initially seeded in 96-well flat-bottom plates at a density of 10^4 cells per well and cultured for 24 h. Cultures were routinely tested for mycoplasma presence. The compounds were dissolved in fresh culture medium, added in a 4-512 μM concentration range (1% DMSO final concentration), and incubated with the cells for 24 h. Finally, formazan crystals were dissolved with pure DMSO and MTT absorbance was measured at 570 and 650 nm. Untreated cells were included as control of 100% viability. Assays were done in quadruplicate.

[10] = tested on: A549; experiment: MTT cytotoxicity assay; format: cell-based; conditions: 24 h; for IC50: 4-512 μM range, read-out: IC50 (concentration causing 50% inhibition of cellular viability); for concentration range with moderate cytotoxicity: complete viability at lower concentrations
Description: as §2

[11] = tested on: M. smegmatis; experiment: MIC, resazurin broth microdilution; format: cell-based, Mycobacterium smegmatis; conditions: media 7H9G-ADC
[12] = tested on: C. ammoniagenes; experiment: MIC, resazurin broth microdilution; format: cell-based, Corynebacterium ammoniagenes; conditions: for MIC: C. ammoniagenes; for MIC C. ammoniagenes: S5 Fig legend, medium not stated; for MIC (μM) C. ammoniagenes: Table 3
[13] = tested on: Mycobacteriumspecies; experiment: MIC against Mycobacterium species (S5 Fig legend); format: cell-based
[14] = tested on: C. diphteriae; experiment: MIC, resazurin broth microdilution; format: cell-based, Corynebacterium diphteriae
[15] = tested on: E. coli; experiment: MIC, resazurin broth microdilution; format: cell-based, Escherichia coli; conditions: media LB
[16] = tested on: C. glutamicum; experiment: MIC, resazurin broth microdilution; format: cell-based, Corynebacterium glutamicum; conditions: media BHI
[17] = molecular target: T3, CaFADS (Corynebacterium ammoniagenes, UniProt Q59263); experiment: Differential scanning fluorescence (thermal denaturation) binding to CaFADS; conditions: for Tm shift of CaFADS thermal denaturation: 2 μM CaFADS, compound up to 250 μM; for Kd: from differential scanning fluorescence data fitted to Eq 2, 20 mM PIPES pH 7.0, 10 mM MgCl2, 2% DMSO, n = 3, mean ± SD
T3 construct: made in house; host or cells: Escherichia coli BL21(DE3)
T3 sequence (Q59263 whole entry): as above
Description: Interaction of compounds with CaFADS was evaluated using fluorescence thermal denaturation, on the bases of the shifts in denaturation midpoints of thermal curves of the protein [65]. Denaturations were performed in a Stratagene Agilent Mx3005p qPCR instrument (Santa Clara, US) following SYPR Orange (ThermoFisher Scientific) emission fluorescence (excitation at 492 nm and emission at 610 nm), which greatly increases when this probe binds to protein hydrophobic regions becoming solvent exposed upon thermal unfolding. Solutions containing 2 μM CaFADS with the studied compound in an increasing 5-250 μM concentration range (2% residual final concentration of DMSO) and 5xSYPR Orange in 20 mM PIPES pH 7.0, 10 mM MgCl2, with a 100 μL total volume were dispensed into 96-well microplates (BRAND 96-well plates pure grade™). After an initial 1 min incubation at 25 °C within the equipment, unfolding curves were registered from 25 to 100 °C at 1 °C·min^−1. Control experiments with CaFADS samples with/without DMSO were routinely performed in each microplate. For those compounds shifting midpoint denaturation temperature, Tm, the dissociation constant, Kd, was predicted by fitting the data to the equation [66] ΔTm/Tm=NRTm0/ΔH0ln(1+[L]/Kd), (2) which estimates the extent of the ligand-induced protein stabilization/destabilization. ΔTm=|Tm-Tm0| with Tm0 and Tm being the midpoint denaturation temperatures in the absence and the presence of ligand, respectively, and ΔH0 the unfolding enthalpy of the protein in the absence of ligand.

[18] = tested on: Bacillus spp.; experiment: MIC, resazurin broth microdilution; format: cell-based, Bacillus sp.; conditions: media MH

Row | Structure (SMILES) | MIC [1] [µM] | RFK+FMNAT % Res. act. 250 μM [2] [%] | MIC [3] [µM] | FMNAT % Res. act. 250 μM [4] [%] | MIC [5] [µM] | MIC (μM) M. tuberculosis [5] [µM] | MIC ([6]; media BHI) [µM] | MIC ([6]; media MH) [µM] | MIC [7] [µM] | MIC [8] [µM] | MIC ([12]; media MH) [µM] | MIC ([12]; media MH+DFO) [µM] | MIC ([12]; media MH+DIP) [µM] | MIC ([12]; media MH+DIP+DFO) [µM] | MIC C. ammoniagenes [12] | MIC (μM) C. ammoniagenes [12] [µM] | MIC Mycobacterium species [13] | MIC ([14]; media MH) [µM] | MIC [15] [µM] | MIC [16] [µM] | also measured
1 | COc1ccc(C(NC(=O)CCC(NC(=O)OCc2ccccc2)C(=O)O)c2ccc(OC)cc2)cc1 (stereo not drawn) [Compound C2, 2-{[(benzyloxy)carbonyl]amino}-5-{[di(4-methoxyphenyl)methyl]amino}-5-oxopentanoic acid] | 128 (≈ 64.8 µg/mL) | 88 ± 2 | > 256 | >95 | 256 (≈ 130 µg/mL) | 256 (≈ 130 µg/mL) | 256 (≈ 130 µg/mL) | > 256 | > 256 | > 64 | 128 (≈ 64.8 µg/mL) | 128 (≈ 64.8 µg/mL) | 128 (≈ 64.8 µg/mL) | 64 (≈ 32.4 µg/mL) | 64 µM (≈ 32.4 µg/mL) | 128 (≈ 64.8 µg/mL) | lower than 256 μM | 128 (≈ 64.8 µg/mL) | > 64 | 16 (≈ 8.1 µg/mL) | IC50 [9]: > 512 µM; IC50 [10]: > 512 µM; MIC [11]: 256 µM (≈ 130 µg/mL); MIC ([12]; media BHI): 64 µM (≈ 32.4 µg/mL); MIC ([14]; media BHI): 64 µM (≈ 32.4 µg/mL)
2 | CC(C)c1ccc(NC(=S)NNC(=O)NC(=O)c2csc([N+](=O)[O-])c2)cc1 [Compound C6, N-({2-[(4-isopropylanilino)carbothioyl]hydrazino}carbonyl)-5-nitrothiophene-3-carboxamide] | > 256 | 57 ± 3 | > 256 | 48 ± 6 |  | 128 (≈ 52.2 µg/mL) | > 256 | 64 (≈ 26.1 µg/mL) | > 256 | > 64 | 128 (≈ 52.2 µg/mL) | 128 (≈ 52.2 µg/mL) | 128 (≈ 52.2 µg/mL) | 128 (≈ 52.2 µg/mL) | lower than 256 μM | 128 (≈ 52.2 µg/mL) | lower than 256 μM | 128 (≈ 52.2 µg/mL) | > 64 | > 64 | IC50 [9]: > 512 µM; IC50 [10]: > 512 µM; MIC [11]: > 256 µM; MIC ([12]; media BHI): > 64 µM; MIC ([14]; media BHI): > 64 µM; Tm shift of CaFADS thermal denaturation [17]: more than 3 degrees; Kd [17]: 41 ± 3 µM
3 | O=C(O)c1ccccc1C(=O)NC1CCN(c2nccc(C(F)(F)F)n2)CC1 [Compound C18, 2-[({1-[4-(trifluoromethyl)pyrimidin-2-yl]piperidin-4-yl}amino)carbonyl]benzoic acid] | 256 (≈ 101 µg/mL) |  | > 256 |  | > 256 |  |  |  | > 256 | 64 (≈ 25.2 µg/mL) | > 256 |  | > 256 | 256 (≈ 101 µg/mL) |  |  |  | 32 (≈ 12.6 µg/mL) | > 256 | > 256 | IC50 ([2]; kinetic measurements, 20 mM PIPES pH 7.0, 10 mM MgCl2, 2% DMSO): 147 ± 4 µM; IC50 ([4]; kinetic measurements, 5 μM FMN, 50 μM ATP, 20 mM PIPES pH 7.0, 10 mM MgCl2, 2% DMSO): 143 ± 4 µM; concentration range with moderate cytotoxicity [9]: 256 to 512 µM; concentration range with moderate cytotoxicity [10]: 256 to 512 µM; Tm shift of CaFADS thermal denaturation [17]: shifted it to lower values; Kd [17]: 3 ± 0.9 µM
4 | CC1(C)c2ccccc2-n2c1cc1oc(=O)cc(O)c1c2=O [Compound C27, 4-hydroxy-11,11-dimethyl-5,11-dihydro-2H-pyrano[2',3':4,5]pyrido[1,2-a]indole-2,5-dione] | 64 (≈ 18.9 µg/mL) |  | > 256 |  | 256 (≈ 75.6 µg/mL) | 256 (≈ 75.6 µg/mL) |  |  | > 256 | 64 (≈ 18.9 µg/mL) | 128 (≈ 37.8 µg/mL) | 128 (≈ 37.8 µg/mL) | 64 (≈ 18.9 µg/mL) | 128 (≈ 37.8 µg/mL) | lower than 256 μM | 128 (≈ 37.8 µg/mL) | lower than 256 μM | 64 (≈ 18.9 µg/mL) | > 256 | 64 (≈ 18.9 µg/mL) | MIC [18]: 32 µM (≈ 9.45 µg/mL); concentration range with moderate cytotoxicity [9]: 256 to 512 µM; concentration range with moderate cytotoxicity [10]: 256 to 512 µM

— paper PMC7449411, “In silico discovery and biological validation of ligands of FAD synthase, a promising new antimicrobial target” (PLoS Computational Biology, 2020)
